In ChEMBL document CHEMBL1201862, “PubChem BioAssay data set” (2004):
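Assay format: 96-well plates, 48-hour exposure. Here, GI50 denotes the concentration required for 50% inhibition of growth.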 The source made the active and inactive calls. Rule as the data show it: active = GI50 up to about 1.1 µM and inactive = higher. Where a SMILES comes first, the peptide text is derived from it. [ ]: non-standard residue; d: D form. The star is where a group is joined. Phe(4-NO2) = N[CH](Cc1ccc([N+](=O)[O-])cc1)C(=O)O; Boc = CC(C)(C)OC(=O)*; OBn = c1ccc(CO*)cc1

What was measured:
Experiment in all cases: NCI anticancer screen, dose series, 48 h
SK-OV-3 = test system: SK-OV-3
NCI-H226 = test system: NCI-H226
UACC-62 = test system: UACC-62
A549 = test system: A549
HOP-92 = test system: HOP-92
OVCAR-5 = test system: OVCAR-5
SK-MEL-2 = test system: SK-MEL-2
LOX IMVI = test system: LOX IMVI
NCI/ADR-RES = test system: NCI/ADR-RES
SF-295 = test system: SF-295
BT-549 = test system: BT-549
U-251 = test system: U-251
TK-10 = test system: TK-10
SNB-75 = test system: SNB-75
HCC 2998 = test system: HCC 2998
COLO 205 = test system: COLO 205
RXF 393 = test system: RXF 393
M14 = test system: M14
MDA-MB-231 = test system: MDA-MB-231
SF-539 = test system: SF-539

Measured: GI50

CCOC(=O)[C@@H]1C2C(=C[C@H]3[C@H]1C(=O)N1CCCC[C@H]31)CCCN2C(=O)OCc1ccccc1 (stereo not given in full)
inactive: SK-OV-3 94.8 µM | NCI-H226 70.5 µM | UACC-62 17.4 µM | A549 36.1 µM | HOP-92 76.4 µM | OVCAR-5 76.4 µM | SK-MEL-2 22.8 µM | LOX IMVI 33.3 µM | NCI/ADR-RES 26.2 µM | SF-295 32.5 µM | BT-549 24.7 µM | U-251 43.6 µM | TK-10 75.9 µM | SNB-75 75.7 µM | HCC 2998 15.1 µM | COLO 205 23.9 µM | RXF 393 47.8 µM | M14 38.8 µM | MDA-MB-231 > 100 µM | SF-539 43.6 µM

CN(C)CCCSc1nc2c(c(=N)n1-c1ccccc1)c(=S)n(-c1ccccc1)c(=S)n2-c1ccccc1
inactive: SK-OV-3 2.65 µM | NCI-H226 4.74 µM | UACC-62 1.78 µM | A549 1.95 µM | HOP-92 1.8 µM | OVCAR-5 11.3 µM | SK-MEL-2 2.12 µM | LOX IMVI 1.29 µM | NCI/ADR-RES 2.59 µM | SF-295 5.21 µM | BT-549 1.68 µM | U-251 1.75 µM | TK-10 1.71 µM | SNB-75 1.63 µM | HCC 2998 1.45 µM | COLO 205 1.9 µM | RXF 393 1.57 µM | M14 1.78 µM | MDA-MB-231 1.61 µM | SF-539 2.52 µM

O=C1/C(=C\c2cccc(Oc3ccccc3)c2)SC(c2ccccc2)N1c1ccc(Cl)cc1 (stereo not given)
inactive: SK-OV-3 14.1 µM | NCI-H226 > 100 µM | UACC-62 9.04 µM | A549 > 40.6 µM | HOP-92 61.1 µM | OVCAR-5 > 39.7 µM | SK-MEL-2 > 47.5 µM | LOX IMVI 15.8 µM | NCI/ADR-RES 21.4 µM | SF-295 7.11 µM | BT-549 28.2 µM | U-251 50.5 µM | TK-10 > 64.9 µM | SNB-75 90.4 µM | HCC 2998 87.5 µM | COLO 205 11.2 µM | RXF 393 19.5 µM | M14 3.17 µM | MDA-MB-231 > 64.6 µM | SF-539 21.3 µM

COc1ccc(-c2c(C#N)c(-c3ccccc3)n(NS(=O)(=O)c3ccccc3)c(=O)c2C#N)cc1
inactive: SK-OV-3 > 100 µM | NCI-H226 > 100 µM | UACC-62 79.8 µM | A549 > 100 µM | HOP-92 26.2 µM | OVCAR-5 > 100 µM | SK-MEL-2 94.6 µM | LOX IMVI 60.4 µM | NCI/ADR-RES 53.3 µM | SF-295 > 100 µM | BT-549 > 100 µM | U-251 71.8 µM | TK-10 > 100 µM | SNB-75 50.8 µM | HCC 2998 81.5 µM | COLO 205 > 100 µM | RXF 393 76.4 µM | M14 > 100 µM | MDA-MB-231 > 100 µM | SF-539 90.6 µM

O=C1SC(SCc2ccccc2)=NC12CC2c1ccccc1 (stereo not given)
inactive: SK-OV-3 37.7 µM | NCI-H226 23.6 µM | UACC-62 17.1 µM | A549 26.9 µM | HOP-92 17.1 µM | OVCAR-5 18.5 µM | SK-MEL-2 18.7 µM | LOX IMVI 18.8 µM | NCI/ADR-RES 23.9 µM | SF-295 19.7 µM | BT-549 20.2 µM | U-251 18.3 µM | TK-10 25.6 µM | SNB-75 29.2 µM | HCC 2998 7.62 µM | COLO 205 23.4 µM | RXF 393 18.7 µM | M14 17.4 µM | MDA-MB-231 20.3 µM | SF-539 20.7 µM

COc1ccc(-c2nc3ccc(C)cc3o2)c(OC)c1
inactive: SK-OV-3 41.5 µM | NCI-H226 30 µM | UACC-62 23.5 µM | A549 4.76 µM | HOP-92 25.4 µM | OVCAR-5 14.9 µM | SK-MEL-2 24.6 µM | LOX IMVI 16.6 µM | NCI/ADR-RES 29.4 µM | SF-295 19.9 µM | BT-549 23.7 µM | U-251 1.63 µM | TK-10 27.4 µM | SNB-75 16.7 µM | HCC 2998 14.9 µM | COLO 205 20.7 µM | RXF 393 22.5 µM | M14 18.2 µM | MDA-MB-231 19.8 µM | SF-539 20 µM

COC(=O)CCC(NC(=O)OC(C)(C)C)C(=O)NC(Cc1ccc([N+](=O)[O-])cc1)C(=O)NCC(=O)OCc1ccccc1 (stereo not given) (Boc-Glu(OMe)-[Phe(4-NO2)]-Gly-OBn; configuration not given here)
inactive: SK-OV-3 > 82.2 µM | NCI-H226 > 64.1 µM | UACC-62 > 31.6 µM | A549 > 100 µM | HOP-92 42.4 µM | OVCAR-5 > 100 µM | SK-MEL-2 > 77.1 µM | LOX IMVI > 48.2 µM | NCI/ADR-RES > 80.7 µM | SF-295 > 48.5 µM | BT-549 20.4 µM | U-251 55.3 µM | TK-10 > 100 µM | SNB-75 18.6 µM | HCC 2998 99.8 µM | COLO 205 38.7 µM | RXF 393 26.9 µM | M14 > 100 µM | MDA-MB-231 > 60 µM | SF-539 28.4 µM
